Laboratory results published in article PMC4904262 (ACS Medicinal Chemistry Letters, 2016).

Legend:
Conditions in all cases: 1 µM, ATP at Km
BRSK1 = BRSK1 (Homo sapiens, UniProt Q8TDC3)
CAMKIV = CAMKIV (Homo sapiens, UniProt Q16566)
CDK2/CYCLINE = CDK2/CYCLINE (Homo sapiens, UniProt P24941)
CK2 = CK2 (Homo sapiens, UniProt P68400)
DDR2 = DDR2 (Homo sapiens, UniProt Q16832)
DMPK = DMPK (Homo sapiens, UniProt Q09013)
EPHA1 = EPHA1 (Homo sapiens, UniProt P21709)
EPHB2 = EPHB2 (Homo sapiens, UniProt P29323)
FGFR3 = FGFR3 (Homo sapiens, UniProt P22607)
FGR = FGR (Homo sapiens, UniProt P09769)
IKKALPHA = IKKALPHA (Homo sapiens, UniProt O15111)
IKKALPHA, sequence (O15111 whole entry): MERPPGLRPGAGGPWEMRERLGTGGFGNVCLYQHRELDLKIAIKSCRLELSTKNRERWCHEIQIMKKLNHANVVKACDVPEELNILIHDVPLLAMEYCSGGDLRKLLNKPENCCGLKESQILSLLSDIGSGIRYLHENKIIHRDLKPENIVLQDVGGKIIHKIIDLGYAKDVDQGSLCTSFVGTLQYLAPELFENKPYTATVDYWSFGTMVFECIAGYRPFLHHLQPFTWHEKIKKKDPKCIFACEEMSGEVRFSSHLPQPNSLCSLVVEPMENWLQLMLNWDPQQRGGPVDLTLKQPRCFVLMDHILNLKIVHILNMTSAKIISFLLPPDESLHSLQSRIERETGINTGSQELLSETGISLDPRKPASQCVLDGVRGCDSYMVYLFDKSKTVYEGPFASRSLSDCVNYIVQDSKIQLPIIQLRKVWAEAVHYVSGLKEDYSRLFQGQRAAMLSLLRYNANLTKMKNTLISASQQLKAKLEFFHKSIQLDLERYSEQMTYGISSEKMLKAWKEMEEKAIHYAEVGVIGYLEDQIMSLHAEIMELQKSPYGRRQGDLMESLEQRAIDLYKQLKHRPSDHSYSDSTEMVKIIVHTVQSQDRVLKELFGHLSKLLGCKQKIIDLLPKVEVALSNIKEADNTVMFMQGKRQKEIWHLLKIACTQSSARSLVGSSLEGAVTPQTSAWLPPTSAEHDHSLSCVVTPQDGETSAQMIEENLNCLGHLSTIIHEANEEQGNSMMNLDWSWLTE

IRAK4 = IRAK4 (Homo sapiens, UniProt Q9NWZ3)
LIMK1 = LIMK1 (Homo sapiens, UniProt P53667)
LKB1 = LKB1 (Homo sapiens, UniProt Q15831)
MET = MET (Homo sapiens, UniProt P08581)
MSK2 = MSK2 (Homo sapiens, UniProt O75676)
MST1 = MST1 (Homo sapiens, UniProt Q13043)
MST2 = MST2 (Homo sapiens, UniProt Q13188)
MST2, sequence (Q13188 whole entry): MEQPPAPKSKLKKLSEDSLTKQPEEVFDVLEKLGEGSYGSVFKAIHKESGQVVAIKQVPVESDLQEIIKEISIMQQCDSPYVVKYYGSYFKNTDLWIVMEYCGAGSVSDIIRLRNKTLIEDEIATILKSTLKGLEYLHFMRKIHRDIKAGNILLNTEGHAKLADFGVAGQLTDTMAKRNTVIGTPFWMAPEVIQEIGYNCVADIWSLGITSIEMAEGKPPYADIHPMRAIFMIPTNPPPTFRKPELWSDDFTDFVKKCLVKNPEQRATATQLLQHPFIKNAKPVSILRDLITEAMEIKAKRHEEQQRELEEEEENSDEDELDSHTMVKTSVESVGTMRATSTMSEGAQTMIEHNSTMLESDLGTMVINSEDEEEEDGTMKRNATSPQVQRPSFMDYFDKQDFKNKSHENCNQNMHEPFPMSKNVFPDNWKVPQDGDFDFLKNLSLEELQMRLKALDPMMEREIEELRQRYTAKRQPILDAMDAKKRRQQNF

MUSK = MUSK (Homo sapiens, UniProt O15146)
MUSK, sequence (O15146 24-869): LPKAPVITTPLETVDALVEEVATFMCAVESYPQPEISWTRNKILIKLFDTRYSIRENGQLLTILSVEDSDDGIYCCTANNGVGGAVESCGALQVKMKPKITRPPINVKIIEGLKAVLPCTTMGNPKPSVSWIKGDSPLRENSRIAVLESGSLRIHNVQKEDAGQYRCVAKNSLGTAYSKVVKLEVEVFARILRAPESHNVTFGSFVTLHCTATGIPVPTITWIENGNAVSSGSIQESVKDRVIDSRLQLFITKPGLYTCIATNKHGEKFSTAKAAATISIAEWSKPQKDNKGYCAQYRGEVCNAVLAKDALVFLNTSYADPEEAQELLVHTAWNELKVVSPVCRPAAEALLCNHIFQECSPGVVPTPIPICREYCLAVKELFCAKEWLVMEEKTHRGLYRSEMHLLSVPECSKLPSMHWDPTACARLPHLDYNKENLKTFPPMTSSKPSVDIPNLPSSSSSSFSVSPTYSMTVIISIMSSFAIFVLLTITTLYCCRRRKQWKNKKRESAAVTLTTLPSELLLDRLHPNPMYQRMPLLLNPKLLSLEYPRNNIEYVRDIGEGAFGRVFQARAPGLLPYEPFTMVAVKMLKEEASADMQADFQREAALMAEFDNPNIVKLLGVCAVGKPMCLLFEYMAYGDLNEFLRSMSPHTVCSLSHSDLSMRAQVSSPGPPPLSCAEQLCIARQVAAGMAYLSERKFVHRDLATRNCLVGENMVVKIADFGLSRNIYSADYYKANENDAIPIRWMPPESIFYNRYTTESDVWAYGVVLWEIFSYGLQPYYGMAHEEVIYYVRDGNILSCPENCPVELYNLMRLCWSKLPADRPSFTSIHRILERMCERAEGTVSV

PAK2 = PAK2 (Homo sapiens, UniProt Q13177)
PAK6 = PAK6 (Homo sapiens, UniProt Q9NQU5)
PDK1 = PDK1 (Homo sapiens, UniProt O15530)
PI3K BETA = PI3K BETA (Homo sapiens, UniProt P42338)
PKBBETA = PKBBETA (Homo sapiens, UniProt P31751)
PKBBETA, sequence (P31751 whole entry): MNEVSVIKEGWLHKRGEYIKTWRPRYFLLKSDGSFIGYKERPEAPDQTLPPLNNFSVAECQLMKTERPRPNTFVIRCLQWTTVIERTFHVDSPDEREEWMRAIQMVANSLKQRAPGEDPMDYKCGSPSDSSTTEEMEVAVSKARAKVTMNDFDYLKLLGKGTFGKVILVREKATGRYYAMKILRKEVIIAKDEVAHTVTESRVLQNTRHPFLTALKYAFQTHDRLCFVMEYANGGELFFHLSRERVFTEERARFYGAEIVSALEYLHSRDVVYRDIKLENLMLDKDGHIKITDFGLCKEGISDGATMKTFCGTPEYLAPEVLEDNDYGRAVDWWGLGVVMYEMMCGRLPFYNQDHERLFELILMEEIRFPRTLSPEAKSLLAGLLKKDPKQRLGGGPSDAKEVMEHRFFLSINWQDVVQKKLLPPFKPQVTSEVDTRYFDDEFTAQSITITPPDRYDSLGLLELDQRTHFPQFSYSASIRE

PKCBETAI = PKCBETAI (Homo sapiens, UniProt P05771)
PKCBII = PKCBII (Homo sapiens, UniProt P05771)
PRAK = PRAK (Homo sapiens, UniProt Q8IW41)
PRK2 = PRK2 (Homo sapiens, UniProt Q16513)
RET = RET (Homo sapiens, UniProt P07949)
RET, sequence (P07949 29-1114): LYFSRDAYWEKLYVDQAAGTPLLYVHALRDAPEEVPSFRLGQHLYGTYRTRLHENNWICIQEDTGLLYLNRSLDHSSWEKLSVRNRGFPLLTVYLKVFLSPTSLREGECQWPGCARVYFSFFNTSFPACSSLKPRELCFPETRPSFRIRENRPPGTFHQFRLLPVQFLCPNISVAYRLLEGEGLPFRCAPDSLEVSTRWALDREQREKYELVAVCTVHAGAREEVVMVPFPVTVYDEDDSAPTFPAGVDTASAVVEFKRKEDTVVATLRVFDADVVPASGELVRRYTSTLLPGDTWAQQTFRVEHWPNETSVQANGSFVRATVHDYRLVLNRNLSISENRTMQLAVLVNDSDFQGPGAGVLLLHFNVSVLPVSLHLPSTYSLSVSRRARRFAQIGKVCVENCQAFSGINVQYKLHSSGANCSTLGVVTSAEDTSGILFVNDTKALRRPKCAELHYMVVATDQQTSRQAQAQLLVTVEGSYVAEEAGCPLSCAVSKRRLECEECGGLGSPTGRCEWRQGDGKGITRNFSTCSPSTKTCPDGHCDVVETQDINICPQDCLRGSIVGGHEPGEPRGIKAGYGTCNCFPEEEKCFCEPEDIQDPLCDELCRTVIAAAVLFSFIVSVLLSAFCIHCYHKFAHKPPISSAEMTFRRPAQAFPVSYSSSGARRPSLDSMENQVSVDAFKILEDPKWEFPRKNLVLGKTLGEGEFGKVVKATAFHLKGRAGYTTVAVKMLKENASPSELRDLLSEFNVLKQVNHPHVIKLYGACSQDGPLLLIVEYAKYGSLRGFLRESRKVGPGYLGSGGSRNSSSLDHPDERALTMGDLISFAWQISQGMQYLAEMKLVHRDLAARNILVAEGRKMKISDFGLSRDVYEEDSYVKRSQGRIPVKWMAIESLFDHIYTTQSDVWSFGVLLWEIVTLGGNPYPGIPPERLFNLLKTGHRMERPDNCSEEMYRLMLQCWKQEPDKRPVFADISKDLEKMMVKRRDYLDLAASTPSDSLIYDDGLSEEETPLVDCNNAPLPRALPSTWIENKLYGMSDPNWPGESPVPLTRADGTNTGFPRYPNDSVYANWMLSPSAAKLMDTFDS

ROCK-I = ROCK-I (Homo sapiens, UniProt Q13464)
RON = RON (Homo sapiens, UniProt Q04912)
RSK3 = RSK3 (Homo sapiens, UniProt Q15349)
SGK = SGK (Homo sapiens, UniProt O00141)
SRPK1 = SRPK1 (Homo sapiens, UniProt Q96SB4)
TBK1 = TBK1 (Homo sapiens, UniProt Q9UHD2)
TSSK2 = TSSK2 (Homo sapiens, UniProt Q96PF2)
TSSK2, sequence (Q96PF2 whole entry): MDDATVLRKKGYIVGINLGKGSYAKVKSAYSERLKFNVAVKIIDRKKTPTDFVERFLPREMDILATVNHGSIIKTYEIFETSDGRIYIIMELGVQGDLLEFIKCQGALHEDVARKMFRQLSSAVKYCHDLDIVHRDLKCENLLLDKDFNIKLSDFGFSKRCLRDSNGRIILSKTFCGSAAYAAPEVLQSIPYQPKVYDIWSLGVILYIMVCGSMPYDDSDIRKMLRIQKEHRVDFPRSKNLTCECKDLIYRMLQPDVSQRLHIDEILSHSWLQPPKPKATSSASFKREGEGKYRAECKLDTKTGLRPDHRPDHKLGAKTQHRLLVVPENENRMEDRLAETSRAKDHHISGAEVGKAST

GRK6 = GRK6 (Homo sapiens, UniProt P43250)
CLK3 = CLK3 (Homo sapiens, UniProt P49761)
FAK = FAK (Homo sapiens, UniProt Q05397)
VRK2 = VRK2 (Homo sapiens, UniProt Q86Y07)
ACK1 = ACK1 (Homo sapiens, UniProt Q07912)
ACK1, sequence (Q07912 whole entry): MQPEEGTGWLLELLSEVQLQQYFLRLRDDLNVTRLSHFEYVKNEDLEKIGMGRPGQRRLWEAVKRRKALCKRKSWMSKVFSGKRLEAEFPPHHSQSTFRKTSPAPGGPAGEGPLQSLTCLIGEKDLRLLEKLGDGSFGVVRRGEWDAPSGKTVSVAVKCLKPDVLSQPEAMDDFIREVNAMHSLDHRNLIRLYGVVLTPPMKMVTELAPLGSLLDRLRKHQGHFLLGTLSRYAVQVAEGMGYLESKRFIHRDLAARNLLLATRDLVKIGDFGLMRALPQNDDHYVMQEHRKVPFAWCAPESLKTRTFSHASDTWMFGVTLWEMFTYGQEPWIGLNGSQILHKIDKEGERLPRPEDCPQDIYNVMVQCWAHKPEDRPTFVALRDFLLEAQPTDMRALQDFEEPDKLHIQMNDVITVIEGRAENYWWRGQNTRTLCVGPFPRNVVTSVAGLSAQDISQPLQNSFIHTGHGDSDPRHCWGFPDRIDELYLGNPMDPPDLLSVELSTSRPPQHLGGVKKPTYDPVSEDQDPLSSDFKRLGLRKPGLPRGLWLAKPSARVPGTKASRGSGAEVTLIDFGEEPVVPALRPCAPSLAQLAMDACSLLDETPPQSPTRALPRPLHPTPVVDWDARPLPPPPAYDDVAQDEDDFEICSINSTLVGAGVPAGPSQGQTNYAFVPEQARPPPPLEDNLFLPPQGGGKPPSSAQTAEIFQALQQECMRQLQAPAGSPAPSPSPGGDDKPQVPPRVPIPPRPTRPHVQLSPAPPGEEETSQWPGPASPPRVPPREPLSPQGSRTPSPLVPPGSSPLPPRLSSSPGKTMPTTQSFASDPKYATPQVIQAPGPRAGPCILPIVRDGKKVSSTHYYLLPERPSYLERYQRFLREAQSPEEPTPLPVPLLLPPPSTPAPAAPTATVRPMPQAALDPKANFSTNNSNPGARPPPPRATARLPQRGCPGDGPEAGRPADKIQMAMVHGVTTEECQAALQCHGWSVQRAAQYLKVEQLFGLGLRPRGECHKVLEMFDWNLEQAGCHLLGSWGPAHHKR

ULK2 = ULK2 (Homo sapiens, UniProt Q8IYT8)
MTOR = MTOR (Homo sapiens, UniProt P42345)
IGF-1R, ACTIVATED = IGF-1R, ACTIVATED (Homo sapiens, UniProt P08069)
TGFBR1 = TGFBR1 (Homo sapiens, UniProt P36897)

## COC1CN(C(=O)c2ccc3c(N)ncc(-c4ccc(-c5cnn(C)c5)cc4)c3n2)C1 [Compound 51]
BRSK1
  percentage effect: 6%
CAMKIV
  percentage effect: -17%
CDK2/CYCLINE
  percentage effect: -1%
CK2
  percentage effect: 5%
DDR2
  percentage effect: 6%
DMPK
  percentage effect: 7%
EPHA1
  percentage effect: 7%
EPHB2
  percentage effect: 7%
FGFR3
  percentage effect: 7%
FGR
  percentage effect: 19%
IKKALPHA
  percentage effect: -17%
IRAK4
  percentage effect: -9%
LIMK1
  percentage effect: 0%
LKB1
  percentage effect: -5%
MET
  percentage effect: 22%
MSK2
  percentage effect: 7%
MST1
  percentage effect: 9%
MST2
  percentage effect: -5%
MUSK
  percentage effect: 3%
PAK2
  percentage effect: -17%
PAK6
  percentage effect: -12%
PDK1
  percentage effect: -8%
PI3K BETA
  percentage effect: -3%
PKBBETA
  percentage effect: 13%
PKCBETAI
  percentage effect: -1%
PKCBII
  percentage effect: -4%
PRAK
  percentage effect: 15%
PRK2
  percentage effect: -3%
RET
  percentage effect: -2%
ROCK-I
  percentage effect: 32%
RON
  percentage effect: 15%
RSK3
  percentage effect: 4%
SGK
  percentage effect: 14%
SRPK1
  percentage effect: 3%
TBK1
  percentage effect: -23%
TSSK2
  percentage effect: 15%
GRK6
  percentage effect: 4%
CLK3
  percentage effect: 2%
FAK
  percentage effect: 3%
VRK2
  percentage effect: 4%
ACK1
  percentage effect: 0%
ULK2
  percentage effect: 4%
MTOR
  percentage effect: -12%
IGF-1R, ACTIVATED
  percentage effect: -18%
TGFBR1
  percentage effect: -5%

## COC1CN(C(=O)c2ccc3c(N)ncc(-c4ccc(-c5cnn(C)c5)cc4)c3c2)C1 [Compound 59]
BRSK1
  percentage effect: 2%
CAMKIV
  percentage effect: 23%
CDK2/CYCLINE
  percentage effect: 1%
CK2
  percentage effect: 8%
DDR2
  percentage effect: 24%
DMPK
  percentage effect: -11%
EPHA1
  percentage effect: 4%
EPHB2
  percentage effect: 24%
FGFR3
  percentage effect: -4%
FGR
  percentage effect: 7%
IKKALPHA
  percentage effect: 28%
IRAK4
  percentage effect: 1%
LIMK1
  percentage effect: 5%
LKB1
  percentage effect: -10%
MET
  percentage effect: -19%
MSK2
  percentage effect: -12%
MST1
  percentage effect: -10%
MST2
  percentage effect: -14%
MUSK
  percentage effect: -18%
PAK2
  percentage effect: -18%
PAK6
  percentage effect: 25%
PDK1
  percentage effect: -10%
PI3K BETA
  percentage effect: -2%
PKBBETA
  percentage effect: -24%
PKCBETAI
  percentage effect: 15%
PKCBII
  percentage effect: -3%
PRAK
  percentage effect: -17%
PRK2
  percentage effect: -11%
RET
  percentage effect: 6%
ROCK-I
  percentage effect: 2%
RON
  percentage effect: -11%
RSK3
  percentage effect: 4%
SGK
  percentage effect: 14%
SRPK1
  percentage effect: -24%
TBK1
  percentage effect: 17%
TSSK2
  percentage effect: -26%
GRK6
  percentage effect: 8%
CLK3
  percentage effect: -19%
FAK
  percentage effect: -18%
VRK2
  percentage effect: -3%
ACK1
  percentage effect: -10%
ULK2
  percentage effect: 8%
MTOR
  percentage effect: -5%
IGF-1R, ACTIVATED
  percentage effect: -10%
TGFBR1
  percentage effect: -4%
